Measured values reported in patent US6387909B1, “Thienopyranecarboxamide derivatives” (Recordati S.A. Chemical and Pharmaceutical Company, priority 1999, dated 2002).

Columns and labels:
[1] = target: T1, recombinant α1b-adrenoceptor (Homo sapiens, UniProt P35368); assay: Radioligand binding ([3H]prazosin) to cloned α1b adrenoceptor; conditions: read-out: Affinity (Ki) α1b
T1 construct: expressed in transfected cells
T1 sequence (P35368 1-520): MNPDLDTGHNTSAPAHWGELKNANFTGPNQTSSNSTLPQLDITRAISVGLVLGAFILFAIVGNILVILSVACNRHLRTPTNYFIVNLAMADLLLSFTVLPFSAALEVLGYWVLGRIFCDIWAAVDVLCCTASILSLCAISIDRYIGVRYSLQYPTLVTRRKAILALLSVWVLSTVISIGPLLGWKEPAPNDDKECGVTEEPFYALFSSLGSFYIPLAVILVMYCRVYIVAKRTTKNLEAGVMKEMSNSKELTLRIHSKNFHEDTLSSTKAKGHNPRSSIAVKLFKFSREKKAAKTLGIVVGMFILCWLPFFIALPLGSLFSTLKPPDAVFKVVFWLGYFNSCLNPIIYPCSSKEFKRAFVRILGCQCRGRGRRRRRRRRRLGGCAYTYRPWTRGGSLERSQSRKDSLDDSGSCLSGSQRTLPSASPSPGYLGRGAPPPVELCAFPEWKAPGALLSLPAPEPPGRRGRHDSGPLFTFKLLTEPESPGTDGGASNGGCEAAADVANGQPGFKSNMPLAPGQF
Description: Determination of affinity for cloned subtypes of the α1-adrenoceptor was performed in membranes from cells transfected by electroporation with DNA expressing the genes encoding each α1-adrenoceptor subtype.
Non-specific binding was determined in the presence of 10 μM phentolamine. Incubation was stopped by addition of ice-cold Tris buffer and rapid filtration through Schleicher & Schuell GF52 filters that had been pretreated with 0.2%-polyethyleneimine.
(§1) Data were expressed as mean of Ki.

[2] = target: T2, human 5-HT1A-serotoninergic receptor (Homo sapiens, UniProt P08908); assay: Radioligand binding ([3H]8-OH-DPAT) to cloned 5-HT1A receptor in HeLa cell membranes; conditions: read-out: Affinity (Ki) 5-HT1A
T2 construct: expressed in transfected cells; host or cells: HeLa
T2 sequence (P08908 1-422): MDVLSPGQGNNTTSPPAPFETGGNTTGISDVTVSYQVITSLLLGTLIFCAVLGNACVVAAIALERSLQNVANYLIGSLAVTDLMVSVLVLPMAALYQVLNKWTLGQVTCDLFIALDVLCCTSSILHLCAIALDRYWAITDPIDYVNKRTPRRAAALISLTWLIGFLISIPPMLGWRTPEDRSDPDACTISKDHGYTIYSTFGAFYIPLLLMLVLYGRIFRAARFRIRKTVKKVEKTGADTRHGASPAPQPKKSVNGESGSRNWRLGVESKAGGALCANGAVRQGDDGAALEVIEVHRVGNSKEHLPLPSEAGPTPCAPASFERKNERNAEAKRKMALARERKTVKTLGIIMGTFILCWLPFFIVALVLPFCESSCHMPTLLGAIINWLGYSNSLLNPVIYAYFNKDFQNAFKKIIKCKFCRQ
Description: HeLa cells were grown as monolayers in Dulbecco's modified Eagle's medium (DMEM), supplemented with 10% fetal calf serum and gentamicin (100 μg/mL), at 37° C. in 5% CO2. The cells were detached from the growth flask at 95% confluence by a cell scraper and were lysed in a buffer containing ice cold 5 mM Tris, 5 mM EDTA (pH 7.4). The homogenates were centrifuged at 40,000×g for 20 minutes and the membranes were resuspended in a small volume of ice-cold buffer containing 5 mM Tris and 5 mM, EDTA (pH 7.4), and immediately frozen and stored at −70° C. until use.
Non-specific binding was determined in the presence of 10 μM 5-HT. Incubation was stopped by addition of ice-cold Tris buffer and rapid filtration through Schleicher & Schuell GF52 filters that had been pretreated with 0.2%-polyethyleneimine.
as §1

[3] = target: T3, α1L adrenoceptor (Oryctolagus cuniculus, UniProt O02824); assay: Functional antagonism of noradrenaline-induced contractions of rabbit aorta pretreated with chloroethylclonidine; format: biochemical; conditions: NA-induced contractions
T3 sequence (O02824 1-466): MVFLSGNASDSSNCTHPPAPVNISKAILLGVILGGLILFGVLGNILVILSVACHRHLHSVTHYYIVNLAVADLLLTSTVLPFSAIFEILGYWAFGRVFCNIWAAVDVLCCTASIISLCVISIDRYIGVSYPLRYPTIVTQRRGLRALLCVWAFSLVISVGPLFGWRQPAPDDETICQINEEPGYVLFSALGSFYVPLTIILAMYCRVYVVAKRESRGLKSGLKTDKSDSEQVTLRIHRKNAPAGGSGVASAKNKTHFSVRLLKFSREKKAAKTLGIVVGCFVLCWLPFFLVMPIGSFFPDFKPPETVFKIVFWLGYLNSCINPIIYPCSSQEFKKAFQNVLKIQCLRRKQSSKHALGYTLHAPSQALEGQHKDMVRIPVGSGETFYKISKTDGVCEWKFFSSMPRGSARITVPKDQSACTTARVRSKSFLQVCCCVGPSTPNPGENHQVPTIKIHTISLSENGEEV
Description: Adult male New Zealand rabbits were sacrificed by cervical dislocation. The aorta was removed, placed in Krebs-Henseleit buffer and dissected free of adhering tissue. […] Desmethylimipramine (0.1 μM) and corticosterone (1 μM) to block neuronal and extraneuronal uptake of NA, (±)-propranol (1 μM) to block β adrenoceptors and yohimbine (0.1 μM) to block α2 adrenoceptors were added to the buffer.
The preparations were equilibrated for 60 minutes and then primed every 30 minutes with 10 μM NA for three times. The aortic rings were then incubated with the alkylating agent chloroethylclonidine (50 μM) for 30 minutes and then washed extensively three times, over a 30 min period before constructing the NA-concentration/response curve. Following washing, tissue was re-equilibrated for 45 min. Test drug was added and after 30 minutes, a second cumulative-NA-concentration/response curve was constructed. Each antagonist concentration was tested using 2-3 aortic rings from different rabbits.
Dose ratios (i.e., the ratio between the concentrations of noradrenaline required to produce half-maximal response in the presence and in the absence of the test antagonist) were calculated at each concentration of the compounds. The logarithm of these dose ratio −1 was plotted against the logarithm of the compound concentrations (Schild plot) to evaluate the affinity constant Kb.
When only one or two concentrations of the test compounds were utilised, the apparent Kb value was calculated using the formula: Kb=[B]/(DOSE RATIO-1), where B is the antagonist concentration.

**Q.** Which Ki [1] does the source give for `COc1ccccc1N1CCN(CCCNC(=O)c2csc3c(=O)cc(-c4ccccc4)oc23)CC1` [Example 2, N-{3-[4-(2-Methoxyphenyl)-1-piperazinyl]propyl}-7-oxo-5-phenyl-7H-thieno[3,2-b]pyran-3-carboxamide] here?
**A.** Its Ki is 7.52 nM.

**Q.** And the Ki [2]?
**A.** Its Ki is 4.48 nM.

**Q.** What about the “pKb, functional affinity for the α1L adrenoceptor subtype” value [3] of the same compound?
**A.** Its value is 8.85.

**Q.** Which Ki [1] does the source give for `O=C(NCCCN1CCN(c2ccccc2OCC(F)(F)F)CC1)c1csc2c(=O)cc(-c3ccccc3)oc12` [Example 5, 7-Oxo-5-phenyl-N-{3-[4-[2-(2,2,2-trifluoroethoxy)phenyl]-1-piperazinyl]propyl}-7H-thieno[3,2-b]pyran-3-carboxamide] here?
**A.** Its Ki is 4.34 nM.

**Q.** What about the Ki [2] of the same compound?
**A.** The Ki was 7.59 nM.

**Q.** What about the “pKb, functional affinity for the α1L adrenoceptor subtype” value [3] of the same compound?
**A.** Its value is 9.12.
